A word on the IC50: it is the concentration needed to halve the response being measured.

Data set [1] has as its system IFNγ-induced NO production in Raw 264.7 cells. Briefly: Nitric oxide assay: suppression of IFNγ-induced NO production (Griess nitrite, adjusted to live cell numbers). In kind it is cell-based. As to conditions: Mus musculus, RAW264.7, 2 h pretreatment, IFNγ 10 ng/ml for 24 hours. As to the method: Raw 264.7 cells were seeded in 96-well plates at a density of 30, 000 cells per well in DMEM+10% FBS and incubated overnight. The next day, cell media was replaced by DMEM+2% FBS. Cells were pretreated with DMSO or test compounds (top dose 100 nM, 1:4 serial dilution, 10-point) for 2 hours and then treated with recombinant mouse IFNγ (R&D, Cat# 485-MI-100) at a final concentration of 10 ng/ml for 24 hours. Nitrite levels were measured in culture media as a surrogate for nitric oxide using the Griess Reagent System (Promega, Cat# G2930). Cell viability was determined using CellTiter Glo reagents (Promega, Cat#G7572). The nitrite levels were adjusted to live cell numbers and inhibition percentage was calculated. The inhibition percentage was then plotted against compound concentration, and IC50 values were calculated using four-parameter algorithm in Graphpad Prism.

In a further data set the target is T1, CYP1A2 (Homo sapiens, UniProt P05177).
T1 construct: studied in liver microsomes of CD-1 mouse, Sprague Dawley rat, Beagle dog, cynomolgus monkey, and human; from tissue; host or cells: liver microsomes
T1 sequence (P05177 1-516): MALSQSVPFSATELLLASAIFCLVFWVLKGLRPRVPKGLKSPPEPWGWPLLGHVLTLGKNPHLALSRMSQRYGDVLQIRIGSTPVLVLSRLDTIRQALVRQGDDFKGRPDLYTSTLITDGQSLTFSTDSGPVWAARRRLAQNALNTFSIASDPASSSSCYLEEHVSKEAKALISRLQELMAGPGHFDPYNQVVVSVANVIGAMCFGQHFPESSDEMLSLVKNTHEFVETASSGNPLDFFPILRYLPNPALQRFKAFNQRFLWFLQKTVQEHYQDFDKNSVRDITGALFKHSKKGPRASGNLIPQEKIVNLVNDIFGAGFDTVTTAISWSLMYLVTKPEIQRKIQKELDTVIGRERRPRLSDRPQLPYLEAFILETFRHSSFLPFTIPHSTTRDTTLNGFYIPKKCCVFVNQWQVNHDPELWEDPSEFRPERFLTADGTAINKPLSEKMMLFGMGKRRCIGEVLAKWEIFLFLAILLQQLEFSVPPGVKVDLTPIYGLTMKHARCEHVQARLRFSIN
Briefly: CYP450 enzyme inhibition in liver microsomes (cocktail probe incubation). The data set is classed as in vitro ADME. As to conditions: species not given, 0.05-50 μM tested. As to the method:
(§1) The inhibition potential of test compounds towards major drug metabolizing CYP450 enzymes was studied in liver microsomes of CD-1 mouse, Sprague Dawley rat, Beagle dog, cynomolgus monkey, and human. The inhibition of CYP1A2, CYP2C9, CYP2C19, CYP2D6, and CYP3A4 was assessed using CYP450 specific probe reactions in a cocktail incubation. Seven concentrations of test compounds (0.05, 0.15, 0.5, 1.5, 5, 15, and 50 μM) were evaluated. In addition, known inhibitors for each probe reaction were included as positive controls and incubated at a single concentration above their respective IC50.
For orientation: Liver microsomes are vesicles of endoplasmic reticulum, rich in cytochrome P450 enzymes.

Another data set deals with T2, CYP2C19 (Homo sapiens, UniProt P33261).
T2 construct: studied in liver microsomes of CD-1 mouse, Sprague Dawley rat, Beagle dog, cynomolgus monkey, and human; from tissue; host or cells: liver microsomes
T2 sequence (P33261 whole entry): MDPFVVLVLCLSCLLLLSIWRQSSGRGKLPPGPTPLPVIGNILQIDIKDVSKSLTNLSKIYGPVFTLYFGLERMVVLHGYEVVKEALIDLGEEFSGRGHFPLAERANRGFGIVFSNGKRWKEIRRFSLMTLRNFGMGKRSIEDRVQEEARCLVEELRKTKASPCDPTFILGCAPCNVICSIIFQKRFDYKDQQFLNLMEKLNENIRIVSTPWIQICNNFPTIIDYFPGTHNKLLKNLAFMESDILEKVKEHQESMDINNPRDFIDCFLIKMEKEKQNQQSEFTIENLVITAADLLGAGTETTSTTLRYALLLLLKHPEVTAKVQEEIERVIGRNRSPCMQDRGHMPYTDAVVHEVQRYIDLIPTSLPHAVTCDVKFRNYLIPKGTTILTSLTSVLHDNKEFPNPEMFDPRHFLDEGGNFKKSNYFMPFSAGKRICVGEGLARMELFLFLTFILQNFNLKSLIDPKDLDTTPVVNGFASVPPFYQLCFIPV
The description is as above. As to conditions: species not given, 0.05-50 μM tested. In kind it is in vitro ADME. As to the method: as §1

In a further data set the target is T3, CYP2C9 (Homo sapiens, UniProt P11712).
T3 construct: studied in liver microsomes of CD-1 mouse, Sprague Dawley rat, Beagle dog, cynomolgus monkey, and human; from tissue; host or cells: liver microsomes
T3 sequence (P11712 whole entry): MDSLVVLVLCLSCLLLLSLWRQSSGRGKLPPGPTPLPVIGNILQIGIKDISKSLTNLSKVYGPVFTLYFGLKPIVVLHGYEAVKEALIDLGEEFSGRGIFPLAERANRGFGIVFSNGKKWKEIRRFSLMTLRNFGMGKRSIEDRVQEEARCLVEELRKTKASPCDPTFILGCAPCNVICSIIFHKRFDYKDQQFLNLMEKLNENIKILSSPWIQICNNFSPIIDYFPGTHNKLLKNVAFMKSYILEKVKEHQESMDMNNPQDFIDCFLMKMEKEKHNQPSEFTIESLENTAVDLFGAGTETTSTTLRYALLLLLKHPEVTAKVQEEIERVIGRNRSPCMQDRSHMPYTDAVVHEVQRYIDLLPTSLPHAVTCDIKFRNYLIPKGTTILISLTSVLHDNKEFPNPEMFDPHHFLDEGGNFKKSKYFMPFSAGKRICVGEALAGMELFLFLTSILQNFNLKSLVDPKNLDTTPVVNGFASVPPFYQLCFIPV
The data set is described as above. The data set is classed as in vitro ADME. As to conditions: species not given, 0.05-50 μM tested. As to the method: as §1

Another data set concerns the target T4, CYP2D6 (Homo sapiens, UniProt P10635).
T4 construct: studied in liver microsomes of CD-1 mouse, Sprague Dawley rat, Beagle dog, cynomolgus monkey, and human; from tissue; host or cells: liver microsomes
Described as above. As to conditions: species not given, 0.05-50 μM tested. The data set is classed as in vitro ADME. The procedure:
as §1

Another data set addresses T5, CYP3A4 (Homo sapiens, UniProt P08684).
T5 construct: studied in liver microsomes of CD-1 mouse, Sprague Dawley rat, Beagle dog, cynomolgus monkey, and human; from tissue; host or cells: liver microsomes
The description is as above. In kind it is in vitro ADME. As to conditions: species not given, 0.05-50 μM tested. As to the method:
as §1

T4 sequence (P10635 whole entry): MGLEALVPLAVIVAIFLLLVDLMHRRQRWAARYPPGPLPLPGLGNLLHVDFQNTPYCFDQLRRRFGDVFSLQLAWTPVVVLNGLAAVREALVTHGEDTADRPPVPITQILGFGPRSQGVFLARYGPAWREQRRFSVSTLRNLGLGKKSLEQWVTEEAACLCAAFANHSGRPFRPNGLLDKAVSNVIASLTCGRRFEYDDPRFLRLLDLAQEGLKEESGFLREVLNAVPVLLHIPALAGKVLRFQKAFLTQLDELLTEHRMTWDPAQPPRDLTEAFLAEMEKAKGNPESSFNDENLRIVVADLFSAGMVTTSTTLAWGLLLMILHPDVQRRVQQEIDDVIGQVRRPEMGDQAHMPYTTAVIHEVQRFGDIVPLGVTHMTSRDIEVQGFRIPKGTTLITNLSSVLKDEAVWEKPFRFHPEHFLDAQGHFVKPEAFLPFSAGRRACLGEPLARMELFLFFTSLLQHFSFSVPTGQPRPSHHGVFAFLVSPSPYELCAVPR
T5 sequence (P08684 whole entry): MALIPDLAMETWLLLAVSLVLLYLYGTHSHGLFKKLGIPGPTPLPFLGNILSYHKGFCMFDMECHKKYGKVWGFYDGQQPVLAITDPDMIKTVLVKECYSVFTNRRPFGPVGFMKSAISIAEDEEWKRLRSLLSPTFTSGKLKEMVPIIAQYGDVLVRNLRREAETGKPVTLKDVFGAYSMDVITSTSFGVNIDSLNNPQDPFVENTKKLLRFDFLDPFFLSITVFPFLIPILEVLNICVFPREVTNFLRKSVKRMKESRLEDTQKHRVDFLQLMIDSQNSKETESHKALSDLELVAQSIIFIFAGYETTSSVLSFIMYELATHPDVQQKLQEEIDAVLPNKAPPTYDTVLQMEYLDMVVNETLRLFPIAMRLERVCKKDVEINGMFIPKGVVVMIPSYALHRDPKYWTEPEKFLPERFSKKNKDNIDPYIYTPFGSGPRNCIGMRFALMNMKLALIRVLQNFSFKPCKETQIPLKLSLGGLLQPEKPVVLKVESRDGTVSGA

Consider `CC1(C)C(=O)C(C#N)=C[C@]2(C)C3=CC(=O)[C@@H]4[C@@H]5C[C@@](C)(N6CCOCC6)CC[C@]5(C)CC[C@@]4(C)[C@]3(C)CC[C@@H]12` [Example 11, (4aR,6aS,6bR,8aS,11S,12aS,12bR,14bS)-4,4,6a,6b,8a,11,14b-heptamethyl-11-morpholino-3,13-dioxo-3,4,4a,5,6,6a,6b,7,8,8a,9,10,11,12,12a,12b,13,14b-octadecahydropicene-2-carbonitrile], for which the IC50 is less than 10 nM in data set [1]; more than 50000 nM on CYP1A2; 14600 nM at CYP2C19; 2200 nM at CYP2C9; more than 50000 nM on CYP2D6; 500 nM against CYP3A4.

In the case of `CC1(C)C(=O)C(C#N)=C[C@]2(C)C3=CC(=O)[C@@H]4[C@@H]5C[C@@](C)(N6CCCC6)CC[C@]5(C)CC[C@@]4(C)[C@]3(C)CC[C@@H]12` [Example 21, (4aR,6aS,6bR,8aS,11S,12aS,12bR,14bS)-4,4,6a,6b,8a,11,14b-heptamethyl-3,13-dioxo-11-(pyrrolidin-1-yl)-3,4,4a,5,6,6a,6b,7,8,8a,9,10,11,12,12a,12b,13,14b-octadecahydropicene-2-carbonitrile], the 50% inhibitory concentration (IC50) in data set [1] is 10 to 100 nM.

Regarding `C[C@H](O)c1nnc([C@@]2(C)CC[C@]3(C)CC[C@]4(C)[C@H](C(=O)C=C5[C@@]6(C)C=C(C#N)C(=O)C(C)(C)[C@@H]6CC[C@]54C)[C@@H]3C2)o1` [Example 23, (4aR,6aS,6bR,8aS,11S,12aS,12bR,14bS)-11-(5-((S)-1-hydroxyethyl)-1,3,4-oxadiazol-2-yl)-4,4,6a,6b,8a,11,14b-heptamethyl-3,13-dioxo-3,4,4a,5,6,6a,6b,7,8,8a,9,10,11,12,12a,12b,13,14b-octadecahydropicene-2-carbonitrile], the IC50 in data set [1] was 10 to 100 nM; against CYP1A2, more than 50000 nM; against CYP2C19 it was 11800 nM; against CYP2C9, 1500 nM; at CYP2D6, 15800 nM; against CYP3A4, 900 nM.

As for `CC1(C)C(=O)C(C#N)=C[C@]2(C)C3=CC(=O)[C@@H]4[C@@H]5C[C@@](C)(c6nnc(C(F)(F)F)o6)CC[C@]5(C)CC[C@@]4(C)[C@]3(C)CC[C@@H]12` [Example 10, (4aR,6aS,6bR,8aS,11S,12aS,12bR,14bS)-4,4,6a,6b,8a,11,14b-heptamethyl-3,13-dioxo-11-(5-(trifluoromethyl)-1,3,4-oxadiazol-2-yl)-3,4,4a,5,6,6a,6b,7,8,8a,9,10,11,12,12a,12b,13,14b-octadecahydropicene-2-carbonitrile], the IC50 was less than 10 nM in data set [1]; more than 50000 nM against CYP1A2; 27500 nM at CYP2C19; 1800 nM against CYP2C9; more than 50000 nM on CYP2D6; 1300 nM on CYP3A4.

With `CC1(C)C(=O)C(C#N)=C[C@]2(C)C3=CC(=O)[C@@H]4[C@@H]5C[C@@](C)(c6ncco6)CC[C@]5(C)CC[C@@]4(C)[C@]3(C)CC[C@@H]12` [Example 6, (4aR,6aS,6bR,8aS,11S,12aS,12bR,14bS)-4,4,6a,6b,8a,11,14b-heptamethyl-11-(oxazol-2-yl)-3,13-dioxo-3,4,4a,5,6,6a,6b,7,8,8a,9,10,11,12,12a,12b,13,14b-octadecahydropicene-2-carbonitrile], the IC50 in data set [1] is less than 10 nM; against CYP1A2 it was more than 50000 nM; at CYP2C19 it was 5600 nM; against CYP2C9 it was 2100 nM; at CYP2D6, 6900 nM; at CYP3A4 it was 500 nM.

For the molecule `CC1(C)C(=O)C(C#N)=C[C@]2(C)C3=CC(=O)[C@@H]4[C@@H]5C[C@@](C)(c6nnc(N)o6)CC[C@]5(C)CC[C@@]4(C)[C@]3(C)CC[C@@H]12` [Example 27, (4aR,6aS,6bR,8aS,11S,12aS,12bR,14bS)-11-(5-amino-1,3,4-oxadiazol-2-yl)-4,4,6a,6b,8a,11,14b-heptamethyl-3,13-dioxo-3,4,4a,5,6,6a,6b,7,8,8a,9,10,11,12,12a,12b,13,14b-octadecahydropicene-2-carbonitrile], in data set [1], the IC50 was 10 to 100 nM.

On to `CC1(C)C(=O)C(C#N)=C[C@]2(C)C3=CC(=O)[C@@H]4[C@@H]5C[C@@](C)(c6nnc(C7CC7)o6)CC[C@]5(C)CC[C@@]4(C)[C@]3(C)CC[C@@H]12` [Example 16, (4aR,6aS,6bR,8aS,11S,12aS,12bR,14bS)-11-(5-cyclopropyl-1,3,4-oxadiazol-2-yl)-4,4,6a,6b,8a,11,14b-heptamethyl-3,13-dioxo-3,4,4a,5,6,6a,6b,7,8,8a,9,10,11,12,12a,12b,13,14b-octadecahydropicene-2-carbonitrile], for which the IC50 in data set [1] was less than 10 nM; against CYP1A2, more than 50000 nM; against CYP2C19, 7400 nM; at CYP2C9, 2000 nM; against CYP2D6, 14700 nM; on CYP3A4 it was 1500 nM.

Regarding `CC1(C)C(=O)C(C#N)=C[C@]2(C)C3=CC(=O)[C@@H]4[C@@H]5C[C@@](C)(c6nc(-c7ccccc7)n[nH]6)CC[C@]5(C)CC[C@@]4(C)[C@]3(C)CC[C@@H]12` [Example 8, (4aR,6aS,6bR,8aS,11S,12aS,12bR,14bS)-4,4,6a,6b,8a,11,14b-heptamethyl-3,13-dioxo-11-(3-phenyl-1H-1,2,4-triazol-5-yl)-3,4,4a,5,6,6a,6b,7,8,8a,9,10,11,12,12a,12b,13,14b-octadecahydropicene-2carbonitrile], the IC50 in data set [1] lay within 10 to 100 nM.

`CC1(C)C(=O)C(C#N)=C[C@]2(C)C3=CC(=O)[C@@H]4[C@@H]5C[C@@](C)(n6cnnc6)CC[C@]5(C)CC[C@@]4(C)[C@]3(C)CC[C@@H]12` [Example 17, (4aR,6aS,6bR,8aS,11S,12aS,12bR,14bS)-4,4,6a,6b,8a,11,14b-heptamethyl-3,13 dioxo-11-(4H-1,2,4-triazol-4-yl)-3,4,4a,5,6,6a,6b,7,8,8a,9,10,11,12,12a,12b,13,14b-octadecahydropicene-2-carbonitrile]: the IC50 was more than 50000 nM against CYP1A2; 16900 nM at CYP2C19; 2200 nM on CYP2C9; 35400 nM against CYP2D6; 100 nM at CYP3A4.

On to `CNC(=O)c1nnc([C@@]2(C)CC[C@]3(C)CC[C@]4(C)[C@H](C(=O)C=C5[C@@]6(C)C=C(C#N)C(=O)C(C)(C)[C@@H]6CC[C@]54C)[C@@H]3C2)o1` [Example 24, 5-((2S,4aS,6aR,6bS,8aR,12aS,14aR,14bS)-11-cyano-2,4a,6a,6b,9,9,12a-heptamethyl-10,14-dioxo-1,2,3,4,4a,5,6,6a,6b,7,8,8a,9,10,12a,14,14a,14b-octadecahydropicen-2-yl)-N-methyl-1,3,4-oxadiazole-2-carboxamide], for which the IC50 is less than 10 nM in data set [1]; more than 50000 nM at CYP1A2; 2800 nM at CYP2C19; 600 nM against CYP2C9; 4000 nM against CYP2D6; 500 nM at CYP3A4.

With `Cc1cnc([C@@]2(C)CC[C@]3(C)CC[C@]4(C)[C@H](C(=O)C=C5[C@@]6(C)C=C(C#N)C(=O)C(C)(C)[C@@H]6CC[C@]54C)[C@@H]3C2)o1` [Example 7, (4aR,6aS,6bR,8aS,11S,12aS,12bR,14bS)-4,4,6a,6b,8a,11,14b-heptamethyl-11-(5-methyloxazol-2-yl)-3,13-dioxo-3,4,4a,5,6,6a,6b,7,8,8a,9,10,11,12,12a,12b,13,14b-octadecahydropicene-2-carbonitrile], the IC50 in data set [1] was less than 10 nM; at CYP1A2 it was more than 50000 nM; against CYP2C19, 9400 nM; at CYP2C9, 2000 nM; against CYP2D6, 10100 nM; against CYP3A4, 800 nM.

The values are drawn from patent US20220017566A1, “TERPINOID DERIVATIVES AND USES THEREOF” (SICHUAN HAISCO PHARMACEUTICAL CO., LTD., priority 2018, published 2022).
